In doi:10.1101/2025.05.22.655619v4 (bioRxiv, 2025):
Residues, ends and D or L forms follow the SMILES beside them.

Columns and labels:
defibrinated sheep blood = assay: Hemolysis assay; type: cell-based; conditions: for Hemo/MIC = (< 20% Hemo) / MIC Ec: MICs >50 µM treated as 100 µM, >200 µM treated as 200 µM
E. coli (ATCC 25922) = assay: Antimicrobial susceptibility testing; type: cell-based, Escherichia coli; conditions: summary values

| Compound | Fold Δ = (Hemo/MIC of compound) / (Hemo/MIC of LL-37) (defibrinated sheep blood; Figure 1B) | Fold Δ = (Hemo/MIC of compound) / (Hemo/MIC of LL-37) (defibrinated sheep blood; Figure 6C) | Hemo/MIC = (< 20% Hemo) / MIC Ec (defibrinated sheep blood; Figure 6C) | MIC against E. coli as stated in the text and in the table of contents graphic (E. coli (ATCC 25922)) [µM] | also measured |
| --- | --- | --- | --- | --- | --- |
| CC[C@H](C)[C@H](NC(=O)[C@H](CCCCN)NC(=O)[C@H](CCC(=O)O)NC(=O)[C@H](CCCCN)NC(=O)[C@H](CO)NC(=O)[C@H](CCCCN)NC(=O)[C@H](CCCNC(=N)N)NC(=O)[C@H](Cc1ccccc1)NC(=O)[C@H](Cc1ccccc1)NC(=O)[C@H](CC(=O)O)NC(=O)CN)C(=O)NCC(=O)N[C@@H](CCCCN)C(=O)N[C@@H](CCC(=O)O)C(=O)N[C@@H](Cc1ccccc1)C(=O)N[C@@H](CCCCN)C(=O)N[C@@H](CCCNC(=N)N)C(=O)N[C@H](C(=O)N[C@H](C(=O)N[C@@H](CCC(N)=O)C(=O)N[C@@H](CCCNC(=N)N)C(=O)N[C@H](C(=O)N[C@@H](CCCCN)C(=O)O)[C@@H](C)CC)C(C)C)[C@@H](C)CC [(#4) GD-23] (H-GDFFRKSKEKIGKEFKRIVQRIK-OH; N-terminus and C-terminus assumed) | 64 | 32 | 32 |  |  |
| CC[C@H](C)[C@H](NC(=O)[C@H](CCCNC(=N)N)NC(=O)[C@H](CCC(N)=O)NC(=O)[C@@H](NC(=O)[C@@H](NC(=O)[C@H](CCCNC(=N)N)NC(=O)[C@@H](N)CCCCN)[C@@H](C)CC)C(C)C)C(=O)N[C@@H](CCCCN)C(=O)N[C@@H](CC(=O)O)C(=O)N[C@@H](Cc1ccccc1)C(=O)N[C@@H](CC(C)C)C(=O)N[C@@H](CCCNC(=N)N)C(=O)O [(#10) KR-12] (H-KRIVQRIKDFLR-OH) |  |  |  | > 50 |  |
| CC[C@H](C)[C@H](NC(=O)[C@H](CCCNC(=N)N)NC(=O)[C@H](CCC(N)=O)NC(=O)[C@@H](NC(=O)[C@@H](NC(=O)[C@H](CCCNC(=N)N)NC(=O)[C@H](CCCCN)NC(=O)[C@H](Cc1ccccc1)NC(=O)[C@@H](N)Cc1ccccc1)[C@@H](C)CC)C(C)C)C(=O)N[C@@H](CCCCN)C(=O)N[C@@H](CC(=O)O)C(=O)N[C@@H](Cc1ccccc1)C(=O)N[C@@H](CC(C)C)C(=O)N[C@@H](CCCNC(=N)N)C(=O)O [(#18) FF-14] (H-FFKRIVQRIKDFLR-OH) |  |  |  | 3.1 |  |
| CC[C@H](C)[C@H](NC(=O)[C@H](CCCCN)NC(=O)[C@H](CCC(=O)O)NC(=O)[C@H](CCCCN)NC(=O)[C@H](CO)NC(=O)[C@H](CCCCN)NC(=O)[C@H](CCCNC(=N)N)NC(=O)[C@H](Cc1ccccc1)NC(=O)[C@H](Cc1ccccc1)NC(=O)[C@H](CC(=O)O)NC(=O)CNC(=O)[C@H](CC(C)C)NC(=O)[C@@H](N)CC(C)C)C(=O)NCC(=O)N[C@@H](CCCCN)C(=O)N[C@@H](Cc1ccccc1)C(=O)N[C@@H](Cc1ccccc1)C(=O)N[C@@H](CCCCN)C(=O)N[C@@H](CCCNC(=N)N)C(=O)N[C@H](C(=O)N[C@H](C(=O)N[C@@H](CCC(N)=O)C(=O)N[C@@H](CCCNC(=N)N)C(=O)N[C@H](C(=O)N[C@@H](CCCCN)C(=O)O)[C@@H](C)CC)C(C)C)[C@@H](C)CC [(#49) LL-25 (FF)] (H-LLGDFFRKSKEKIGKFFKRIVQRIK-OH; N-terminus assumed) |  | 4 | 4 |  |  |
| CC[C@H](C)[C@H](NC(=O)[C@H](CCCCN)NC(=O)[C@H](CCC(=O)O)NC(=O)[C@H](CCCCN)NC(=O)[C@H](CO)NC(=O)[C@H](CCCCN)NC(=O)[C@H](CCCNC(=N)N)NC(=O)[C@H](Cc1ccccc1)NC(=O)[C@H](Cc1ccccc1)NC(=O)[C@H](CC(=O)O)NC(=O)CN)C(=O)NCC(=O)N[C@@H](CCCCN)C(=O)N[C@@H](Cc1ccccc1)C(=O)N[C@@H](Cc1ccccc1)C(=O)N[C@@H](CCCCN)C(=O)N[C@@H](CCCNC(=N)N)C(=O)N[C@H](C(=O)N[C@H](C(=O)N[C@@H](CCC(N)=O)C(=O)N[C@@H](CCCNC(=N)N)C(=O)N[C@H](C(=O)N[C@@H](CCCCN)C(=O)O)[C@@H](C)CC)C(C)C)[C@@H](C)CC [(#53) GD-23 (FF)] (H-GDFFRKSKEKIGKFFKRIVQRIK-OH; N-terminus and C-terminus assumed) |  | 16 | 16 |  |  |
| Colistin [reference compound] | 512 |  |  |  | Fold Δ = (Hemo/MIC of compound) / (Hemo/MIC of LL-37) (defibrinated sheep blood; Figure 2B): 256; Hemo/MIC = (< 20% Hemo) / MIC Ec (defibrinated sheep blood; Figure 2B): 64; Hemo/MIC = (< 20% Hemo) / MIC Ec (defibrinated sheep blood; Figure 4B): 128 |
